{
  "source": "paper PMC12022903",
  "about": "“Evaluation of drug-drug interaction between Suraxavir Marboxil (GP681) and itraconazole, and assessment of the impact of gene polymorphism” (Frontiers in Pharmacology, 2025)",
  "origin": "cited, not measured here",
  "key": {"plasma protein": {"system": "plasma protein", "design": "method as in unpublished data", "settings": "preclinical studies; ref unpublished data; cited from earlier work"}, "[1]": {"design": "method as in unpublished data", "settings": "preclinical studies; ref unpublished data; cited from earlier work"}, "influenza virus": {"system": "influenza virus", "design": "method as in preclinical studies", "settings": "ref preclinical studies; cited from earlier work"}, "MDR1": {"system": "MDR1", "design": "method as in unpublished data", "settings": "preclinical studies; ref unpublished data; cited from earlier work"}},
  "data": [
    {"smiles": "O=C1c2c(O)c(=O)ccn2N([C@@H]2c3ccccc3SCc3c2ccc(F)c3F)[C@@H]2COC3(CC3)CN12", "note": "[GP1707D07]", "values": [
      {"measurement": "plasma protein binding rate", "setting": "plasma protein", "value": "high plasma protein binding rate"},
      {"measurement": "route of excretion", "setting": "[1]", "value": "mainly excreted in feces"},
      {"measurement": "tissue distribution", "setting": "[1]", "value": "widely distributed across various tissues"},
      {"measurement": "estimated clinically effective concentration (antiviral threshold)", "setting": "influenza virus", "value": 6.87, "unit": "ng/mL"},
      {"measurement": "substrate for the MDR1 transporter", "setting": "MDR1", "value": "Neither Suraxavir Marboxil (GP681) nor its metabolite, GP1707D07, serves as substrates"}
    ]}
  ]
}
